Laboratory results as given in patent US20250325552A1, “SUBSTITUTED THIADIAZOLYL DERIVATIVES AS DNA POLYMERASE THETA INHIBITORS” (IDEAYA Biosciences, Inc., priority 2020, published 2025).

target: Polθ theta (1-899) (hPolQ) (Homo sapiens (Human), UniProt O75417); experiment: Biological Assay 1: Polθ ATPase activity, NADH oxidation-coupled enzymatic assay (10 nM enzyme, 30 min); type: biochemical; settings: Polθ (1-899) 10 nM, 100 μM ATP, 300 nM dT50 ssDNA; Examples 1 to 268; read-out: ATPase NADH coupling:Standard Screening:hPolQ IC50
Sequence (O75417 1-899): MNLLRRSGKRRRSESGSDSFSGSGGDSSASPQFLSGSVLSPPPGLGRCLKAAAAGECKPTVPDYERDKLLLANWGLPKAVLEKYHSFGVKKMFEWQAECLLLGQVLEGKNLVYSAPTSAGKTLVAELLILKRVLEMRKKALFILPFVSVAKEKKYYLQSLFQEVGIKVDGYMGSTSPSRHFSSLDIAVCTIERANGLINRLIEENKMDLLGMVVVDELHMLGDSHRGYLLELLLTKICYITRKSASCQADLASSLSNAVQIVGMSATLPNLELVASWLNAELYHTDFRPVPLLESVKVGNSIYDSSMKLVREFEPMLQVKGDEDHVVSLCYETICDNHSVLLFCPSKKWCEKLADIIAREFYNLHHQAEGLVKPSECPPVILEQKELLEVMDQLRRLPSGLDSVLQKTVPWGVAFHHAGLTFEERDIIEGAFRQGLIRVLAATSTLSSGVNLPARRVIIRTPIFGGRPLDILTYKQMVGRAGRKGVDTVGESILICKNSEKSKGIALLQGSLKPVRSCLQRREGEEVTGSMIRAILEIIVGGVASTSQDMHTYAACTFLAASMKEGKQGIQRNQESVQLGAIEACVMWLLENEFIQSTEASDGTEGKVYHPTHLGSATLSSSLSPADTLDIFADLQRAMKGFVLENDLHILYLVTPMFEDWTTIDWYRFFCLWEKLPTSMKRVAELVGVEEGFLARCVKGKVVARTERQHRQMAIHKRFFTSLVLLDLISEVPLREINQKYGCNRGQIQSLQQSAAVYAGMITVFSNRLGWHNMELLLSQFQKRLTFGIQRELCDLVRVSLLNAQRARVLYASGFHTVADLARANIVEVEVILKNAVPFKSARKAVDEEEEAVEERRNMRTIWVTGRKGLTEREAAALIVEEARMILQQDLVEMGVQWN
Procedure, shortened: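 Polθ (1-899) at 10 nM was preincubated with compound for 15 min at room temperature in 20 mM Tris pH 7.80, 80 mM KCl, 10 mM MgCl2. An equal volume of 100 μM ATP, 300 nM dT50 ssDNA and a PK/LDH–NADH coupling system was then added. A340 was read each minute for 30 min. IC50 came from rate slopes over 10-point series with a four-parameter fit.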

COc1cnc(Cl)cc1-c1cc(C)ncc1C(=O)Nc1nnc(OCc2ccc3c(n2)OCCO3)s1 [Example 51, 2′-chloro-N-(5-((2,3-dihydro-[1,4]dioxino[2,3-b]pyridin-6-yl)methoxy)-1,3,4-thiadiazol-2-yl)-5′-methoxy-6-methyl-[4,4′-bipyridine]-3-carboxamide] and COc1cnc(Cl)cc1-c1cc(C)ncc1C(=O)Nc1nnc(OCc2ccc(CO)cn2)s1 [Example 60, 2′-chloro-N-(5-((5-(hydroxymethyl)pyridin-2-yl)methoxy)-1,3,4-thiadiazol-2-yl)-5′-methoxy-6-methyl-[4,4′-bipyridine]-3-carboxamide] cannot be ordered by IC50: at most 200 nM for the first, at most 200 nM for the second.

COc1ccc(COc2nnc(NC(=O)c3cnc(C)cc3-c3cc(Cl)ccc3OC)s2)nc1 [Example 52, 4-(5-chloro-2-methoxyphenyl)-N-(5-((5-methoxypyridin-2-yl)methoxy)-1,3,4-thiadiazol-2-yl)-6-methylpyridine-3-carboxamide] and COc1ccc(F)cc1-c1cc(C)ncc1C(=O)Nc1nnc(OCc2ccc(C(C)(C)O)cn2)s1 [Example 63, 4-(5-fluoro-2-methoxyphenyl)-N-(5-((5-(2-hydroxypropan-2-yl)pyridin-2-yl)methoxy)-1,3,4-thiadiazol-2-yl)-6-methylnicotinamide] cannot be ordered by IC50: at most 200 nM for the first, at most 200 nM for the second.

COc1ccc(COc2nnc(NC(=O)c3cnc(C)cc3-c3ccccc3OC(F)F)s2)nc1 [Example 53, 4-(2-(difluoromethoxy)phenyl)-N-(5-((5-methoxypyridin-2-yl)methoxy)-1,3,4-thiadiazol-2-yl)-6-methylnicotinamide] and Cc1cc(-c2ccccc2OC(F)F)c(C(=O)Nc2nnc(OCc3ccc(C(C)(C)O)cn3)s2)cn1 [Example 59, 4-(2-(difluoromethoxy)phenyl)-N-(5-((5-(2-hydroxypropan-2-yl)pyridin-2-yl)methoxy)-1,3,4-thiadiazol-2-yl)-6-methylnicotinamide] cannot be ordered by IC50: at most 200 nM for the first, at most 200 nM for the second.

COc1cccc(F)c1-c1cc(C)ncc1C(=O)Nc1nnc(OCc2ccc(CC3COC3)cn2)s1 [Example 54, 4-(2-fluoro-6-methoxyphenyl)-6-methyl-N-(5-((5-(oxetan-3-ylmethyl)pyridin-2-yl)methoxy)-1,3,4-thiadiazol-2-yl)nicotinamide] and COc1cccc(F)c1-c1cc(C)ncc1C(=O)Nc1nnc(OCc2ccc(CCO)cn2)s1 [Example 55, 4-(2-fluoro-6-methoxyphenyl)-N-(5-((5-(2-hydroxyethyl)pyridin-2-yl)methoxy)-1,3,4-thiadiazol-2-yl)-6-methylnicotinamide] cannot be ordered by IC50: at most 200 nM for the first, at most 200 nM for the second.

Cc1cc(-c2c(F)cccc2OC(F)F)c(C(=O)Nc2nnc(OCc3ccc([C@H](C)O)cn3)s2)cn1 [Example 56, 4-(2-(difluoromethoxy)-6-fluorophenyl)-N-(5-((5-((S)-1-hydroxyethyl)pyridin-2-yl)methoxy)-1,3,4-thiadiazol-2-yl)-6-methylnicotinamide] and Cc1cc(-c2c(F)cccc2OC(F)F)c(C(=O)Nc2nnc(OCc3ccc([C@@H](C)O)cn3)s2)cn1 [Example 57, 4-(2-(difluoromethoxy)-6-fluorophenyl)-N-(5-((5-((R)-1-hydroxyethyl)pyridin-2-yl)methoxy)-1,3,4-thiadiazol-2-yl)-6-methylnicotinamide] cannot be ordered by IC50: at most 200 nM for the first, at most 200 nM for the second.

COc1cnc(Cl)cc1-c1cc(C)ncc1C(=O)Nc1nnc(OCc2ccc(C(C)(C)O)cn2)s1 [Example 58, 2′-chloro-N-(5-((5-(2-hydroxypropan-2-yl)pyridin-2-yl)methoxy)-1,3,4-thiadiazol-2-yl)-5′-methoxy-6-methyl-[4,4′-bipyridine]-3-carboxamide] and COc1cnc(Cl)cc1-c1cc(C)ncc1C(=O)Nc1nnc(OCc2ccc([C@H](C)O)cn2)s1 [Example 68, (S)-2′-chloro-N-(5-((5-(1-hydroxyethyl)pyridin-2-yl)methoxy)-1,3,4-thiadiazol-2-yl)-5′-methoxy-6-methyl-(4,4′-bipyridine)-3-carboxamide] cannot be ordered by IC50: at most 200 nM for the first, at most 200 nM for the second.

COc1cccc(F)c1-c1cc(C)ncc1C(=O)Nc1nnc(OCC23CC(O)(C2)C3)s1 [Example 61, 4-(2-fluoro-6-methoxyphenyl)-N-(5-((3-hydroxybicyclo(1.1.1)pentan-1-yl)methoxy)-1,3,4-thiadiazol-2-yl)-6-methylnicotinamide] and COc1cccc(F)c1-c1cc(C)ncc1C(=O)Nc1nnc(OCC23CCC(O)(CC2)CC3)s1 [Example 66, 4-(2-fluoro-6-methoxyphenyl)-N-(5-((4-hydroxybicyclo(2.2.2)octan-1-yl)methoxy)-1,3,4-thiadiazol-2-yl)-6-methylnicotinamide] cannot be ordered by IC50: at most 200 nM for the first, at most 200 nM for the second.

Compared with COc1ccccc1-c1cc(C)ncc1C(=O)Nc1nnc(OCc2ncccc2CO)s1 [Example 62, N-(5-((3-(hydroxymethyl)pyridin-2-yl)methoxy)-1,3,4-thiadiazol-2-yl)-4-(2-methoxyphenyl)-6-methylpyridine-3-carboxamide], COc1ccccc1-c1cc(C)ncc1C(=O)Nc1nnc(OCc2ccc3c(n2)CCNC3)s1 [Example 71, 4-(2-methoxyphenyl)-6-methyl-N-(5-(5,6,7,8-tetrahydro-1,6-naphthyridin-2-ylmethoxy)-1,3,4-thiadiazol-2-yl)pyridine-3-carboxamide] is higher in IC50: 200 to 500 nM for the first, 500 to 1000 nM for the second.

COc1cccc(F)c1-c1cnncc1C(=O)Nc1nnc(OCc2ccc(Cl)cn2)s1 [Example 64, N-(5-((5-chloropyridin-2-yl)methoxy)-1,3,4-thiadiazol-2-yl)-5-(2-fluoro-6-methoxyphenyl)pyridazine-4-carboxamide] and COc1ccnc(COc2nnc(NC(=O)c3cnc(C)cc3-c3c(F)cccc3OC)s2)c1 [Example 67, 4-(2-fluoro-6-methoxyphenyl)-N-(5-((4-methoxypyridin-2-yl)methoxy)-1,3,4-thiadiazol-2-yl)-6-methylnicotinamide] cannot be ordered by IC50: at most 200 nM for the first, at most 200 nM for the second.

COc1cccc(F)c1-c1cc(C)ncc1C(=O)Nc1nnc(OCC23CCC(F)(CC2)CC3)s1 [Example 65, 4-(2-fluoro-6-methoxyphenyl)-N-(5-((4-fluorobicyclo(2.2.2)octan-1-yl)methoxy)-1,3,4-thiadiazol-2-yl)-6-methylnicotinamide] and COc1cccc(F)c1-c1cc(C)ncc1C(=O)Nc1nnc(OCc2cc(CO)ccn2)s1 [Example 72, 4-(2-fluoro-6-methoxyphenyl)-N-(5-((4-(hydroxymethyl)pyridin-2-yl)methoxy)-1,3,4-thiadiazol-2-yl)-6-methylnicotinamide] cannot be ordered by IC50: at most 200 nM for the first, at most 200 nM for the second.

COc1cnc(Cl)cc1-c1cc(C)ncc1C(=O)Nc1nnc(OCc2ccc([C@@H](C)O)cn2)s1 [Example 69, (R)-2′-chloro-N-(5-((5-(1-hydroxyethyl)pyridin-2-yl)methoxy)-1,3,4-thiadiazol-2-yl)-5′-methoxy-6-methyl-(4,4′-bipyridine)-3-carboxamide] and Cc1cc(-c2ccnc(Cl)c2)c(C(=O)Nc2nnc(OCc3ccc(C(C)(C)O)cn3)s2)cn1 [Example 73, 2′-chloro-N-(5-((5-(2-hydroxypropan-2-yl)pyridin-2-yl)methoxy)-1,3,4-thiadiazol-2-yl)-6-methyl-(4,4′-bipyridine)-3-carboxamide] cannot be ordered by IC50: at most 200 nM for the first, at most 200 nM for the second.

With Cc1cc(-c2c(F)cccc2OC(F)F)c(C(=O)Nc2nnc(OCc3cnc(CO)cn3)s2)cn1 [Example 70, 4-(2-(difluoromethoxy)-6-fluorophenyl)-N-(5-((5-(hydroxymethyl)pyrazin-2-yl)methoxy)-1,3,4-thiadiazol-2-yl)-6-methylnicotinamide] the IC50 was at most 200 nM.
